According to publication PMC13672995, “NCR13 peptide protects soybean against Cercospora sojina using multi-faceted modes of action and additive interaction with chemical fungicides” (Journal of Experimental Botany, 2025):
Where no end group is shown, it is not given here.

What was measured:
[1] = test system: C. sojina conidia; assay: ROS measurement with H2DCFDA; assay type: cell-based, Cercospora sojina; conditions: 1.5 μM peptide, 15 µM H2DCFDA
Method: The reactive oxygen species (ROS) indicator dye 2′,7′-dichlorodihydrofluorescein diacetate (H2DCFDA) was used to evaluate ROS induction in C. sojina cells. Cercospora sojina conidia (∼1×10^5 conidia ml^−1) in SFM at various concentrations of iron (FeSO4) were mixed with 15 µM H2DCFDA amd 1.5 µM NCR13_PFV1, and the fluorescence measurements were taken in a Tecan plate reader M200 PRO at excitation and emission wavelengths of 485 nm and 535 nm, respectively, every 30 min for 15 h. ROS induction in C. sojina was visualized using time-lapse confocal microscopy (×63 water immersion objective lens, HC PL Apochromat CS2). The C. sojina conidia grown for 4–5 h in SFM at various concentrations of iron were treated with 15 µM H2DCFDA and 1.5 µM DyLight550-NCR13_PFV1 followed by acquisition of z-stacks using a Leica SP8-X confocal microscope. The excitation and emission wavelengths of DyLight550-NCR13_PFV1 and H2DCFDA were 560 nm, 575–650 nm, and 485 nm, 500–540 nm, respectively.

[2] = test system: B. cinerea; assay: In vitro antifungal activity against B. cinerea; assay type: cell-based, Botrytis cinerea
[3] = test system: C. sojina Cs350 conidia and germlings; assay: Plasma membrane permeabilization assay (SYTOX Green); assay type: cell-based, Cercospora sojina
Method: Membrane permeabilization of C. sojina Cs350 by NCR13_PFV1 and azoxystrobin was analyzed by visualizing the influx of SYTOX Green (SG) (Thermo Scientific) using time-lapse confocal microscopy. Germlings grown for 6–8 h or conidia of C. sojina were mixed with various concentrations of NCR13_PFV1, azoxystrobin, or both and 0.5 µM SG and were observed under confocal microscopy at an excitation wavelength of 500 nm and an emission wavelength ranging from 510 nm to 600 nm at specific time intervals. A z-stack at each time point was acquired using a ×63 water immersion objective lens (HC PL Apochromat CS2).

[4] = test system: soybean cv. Blackhawk plants; conditions: 48 µM spray
Method: To test the potential phytotoxicity of NCR13_PFV1 spray on soybean plants, 48 µM NCR13_PFV1 or water was first sprayed on 4-week-old soybean cv. Blackhawk plants (2 ml per plant) followed by biweekly sprays at 5 ml per plant until plants were 10 weeks old. When plants reached 12 weeks, photographs were taken for phenotypic analysis and the plants were allowed to mature. Soybean pods were harvested when the plants were all dry and mature, and the number of pods, 100 seed weight, and total seed weight were determined. At least four plants per treatment were tested.

[5] = test system: C. sojina Cs320 and Cs350 on soybean cv. Blackhawk (FLS); assay: Pre- and post-inoculation in planta antifungal assays with fungal DNA qPCR; assay type: in vivo, Cercospora sojina
Method: For both pre- and post-inoculation in planta antifungal activity assays, 2- to 3-week-old soybean plants cv. Blackhawk (FLS susceptible) grown under a16 h light and 8 h dark cycle were used. For pre-inoculation in planta antifungal activity assay, the second or third trifoliate leaves of soybean plants were first sprayed with 1 ml of NCR13_PFV1 peptide (48 µM) on the abaxial leaf surface followed by spray inoculation with 1 ml of conidial suspension (1×10^5 ml^−1) of azoxystrobin-sensitive Cs320 or -resistant Cs350 isolate. For the post-inoculation in planta antifungal activity assay, the second or third trifoliate leaves of soybean were first spray-inoculated with 1 ml of conidial suspension (1×10^5 ml^−1) followed by spray application of 1 ml of NCR13_PFV1 peptide (48 µM) 2 h later. The mock-treated plants were sprayed with water but no peptide. For both pre- and post-inoculation in planta assays, each treatment consisted of at least four plants and the experiments were performed at least twice. The inoculated plants were kept in a growth chamber under a 16 h light and 8 h dark cycle and 90% relative humidity. The FLS symptoms started to appear 7–10 d post-inoculation and disease scoring was done at 14 d. Diseased leaves were excised from the plant, and both white light and CropReporter (Fv/Fm) images were taken to assess the photosynthetic efficiency of the plant. The leaves were also scored based on a 0–5 scale where: 0=healthy leaves with no leaf spots, 1=1–25% leaf area covered with spots, 2=26–50% leaf area covered with spots, 3=slightly yellow leaves with 51–75% leaf area covered with spots, 4=moderately yellow leaves with 76–95% leaf area covered with spots, and 5=whole leaf is yellow or >96% leaf area covered with spots.
Furthermore, DNA was extracted from the excised leaves to quantify the fungal DNA content using quantitative PCR (PCR). […] DNA quantification in terms of fold change was calculated using the ΔΔCt method ([Livak and Schmittgen, 2001]). […]

[6] = test system: C. sojina QoI fungicide-resistant isolate Cs350; assay type: cell-based, Cercospora sojina
Method: In vitro antifungal activity of AFPs and QoI fungicides was determined using 96-well plate assays as described ([Velivelli et al., 2020]) with slight modifications. Briefly, 2- to 3-week-old C. sojina was used to make a conidial suspension in 2× SFM at the final concentration of ∼10^5 conidia ml^−1. Simultaneously, peptide dilutions (in water) at various concentrations were made. Fungicides were dissolved in 50% acetone and 50% water to make a stock solution of 500 µM, and serial dilutions were made in water as needed. The peptide–conidia or the fungicide–conidia mixture at the ratio of 1:1 (45 µl:45 µl) was added in a 96-well plate and incubated at room temperature for 48 h, after which MICs of the peptides/fungicides were calculated based on microscopy as well as the resazurin cell viability assay ([Velivelli et al., 2020]).

With “TKPCQSDKDCKKFACRKPKVPKCINGFCKCVR (disulfide (positions not given here)) [NCR13_PFV1, chickpea nodule-specific cysteine-rich 32 amino acid peptide, disulfide cross-linking variant 1, expressed in Pichia pastoris]” the ROS induction [1] was “accumulates ROS”, the “ROS level over time at iron >20 μM” value ([1]; read every 30 min for 15 h) was “did not increase with time” and the “fold increase in MIC against B. cinerea with increasing iron” value ([2]; iron from 5 µM to 30 μM) was 4 fold. For the same sequence, the “MIC against B. cinerea at low iron” value ([2]; medium with 5 µM iron) was 0.375 µM, the “MIC against B. cinerea at high iron” value ([2]; medium with 30 μM iron) was 1.5 µM and the “plasma membrane permeabilization (SYTOX Green uptake)” value ([3]; Cs350, 0.5 µM SG, confocal microscopy) was “permeabilization of the plasma membrane”. The “time to plasma membrane permeabilization of conidia and germlings” value ([3]; SYTOX Green uptake) was at most 10 min, the “morphology of sprayed plants (growth rate, height, leaf color) compared with water” value ([4]; bi-weekly from the fourth to the 10th week, at least four plants) was “No morphological difference” and the “number of pods, 100 seed weight, total seed yield compared with water” value ([4]; at maturity, Student’s t-test) was “no significant differences”. For the same sequence, the “fungal biomass in infected leaves (fungal DNA, qPCR)” value ([5]; 48 µM spray, Cs320 and Cs350, P-value ≤0.05) was “significantly reduced biomass”, the “FLS symptoms (disease severity, 0–5 scale)” value ([5]; 48 µM spray, pre- or post-inoculation (2 h), Cs320 or Cs350, scored at 14 d, Wilcoxon, P-value ≤0.05, n=8, r=2) was “significantly reduced” and the “concentration giving the best control of FLS symptoms” value ([5]; preliminary experiments, 12 µM to 48 µM tested) was 48 µM. For the same sequence, the “MIC in SFM without iron” value ([6]; 0 μM FeSO4, 2 d) was 0.75 µM, the “change of MIC with calcium supplementation” value ([6]; CaCl2, up to 20 μM) was “No change in MIC” and the “MIC in SFM with ≥7.5 μM iron” value ([6]; FeSO4 up to 60 μM, 2 d) was 3 µM. For the same sequence, the “change of MIC with manganese supplementation” value ([6]; MnSO4, various concentrations) was “No change in MIC”, the “MIC (μM) against C. sojina, Fungicide resistant, Cs350” value ([6]; SFM, ~10^5 conidia ml−1, room temperature, 48 h, resazurin cell viability assay and microscopy) was 1.5 µM and the “change of MIC with zinc supplementation” value ([6]; ZnSO4, various concentrations) was “No change in MIC”.
